# From ChEMBL document CHEMBL1144290, “Discovery and structure-activity relationships of novel selective norepinephrine and dual serotonin/norepinephrine reuptake inhibitors” (Bioorg Med Chem Lett, 2005)
# Assays:
# [1] = target: Sodium-dependent dopamine transporter (Homo sapiens) (UniProt Q01959); experiment: Displacement of dopamine by the compound against dopamine transporter was determined at 1000 nM
# [2] = Inhibitory constant against Serotonin transporter
# [3] = Inhibitory constant determined against Norepinephrine transporter
# [4] = Inhibitory constant against Dopamine transporter
# [5] = target: Sodium-dependent serotonin transporter (Homo sapiens) (UniProt P31645); experiment: Displacement of serotonin by the compound against serotonin transporter was determined
# Chain of Sodium-dependent serotonin transporter (Homo sapiens) (P31645 whole entry, looked up): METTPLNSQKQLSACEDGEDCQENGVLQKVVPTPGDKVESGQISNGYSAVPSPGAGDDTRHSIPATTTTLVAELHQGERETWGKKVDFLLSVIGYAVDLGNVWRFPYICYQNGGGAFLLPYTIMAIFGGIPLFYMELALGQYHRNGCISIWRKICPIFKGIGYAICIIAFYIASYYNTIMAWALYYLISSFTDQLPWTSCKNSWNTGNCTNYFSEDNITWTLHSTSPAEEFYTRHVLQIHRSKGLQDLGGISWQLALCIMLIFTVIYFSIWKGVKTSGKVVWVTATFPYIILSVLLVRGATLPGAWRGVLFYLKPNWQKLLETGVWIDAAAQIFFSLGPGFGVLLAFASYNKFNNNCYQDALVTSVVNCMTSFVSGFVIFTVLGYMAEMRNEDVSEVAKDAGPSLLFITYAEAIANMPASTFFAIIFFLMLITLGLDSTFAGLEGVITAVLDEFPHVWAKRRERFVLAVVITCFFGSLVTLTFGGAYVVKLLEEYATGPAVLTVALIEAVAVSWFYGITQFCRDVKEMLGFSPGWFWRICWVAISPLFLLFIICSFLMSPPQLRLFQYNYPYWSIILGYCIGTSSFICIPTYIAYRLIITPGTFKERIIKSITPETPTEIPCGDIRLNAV
# Chain of Sodium-dependent dopamine transporter (Homo sapiens) (Q01959 whole entry): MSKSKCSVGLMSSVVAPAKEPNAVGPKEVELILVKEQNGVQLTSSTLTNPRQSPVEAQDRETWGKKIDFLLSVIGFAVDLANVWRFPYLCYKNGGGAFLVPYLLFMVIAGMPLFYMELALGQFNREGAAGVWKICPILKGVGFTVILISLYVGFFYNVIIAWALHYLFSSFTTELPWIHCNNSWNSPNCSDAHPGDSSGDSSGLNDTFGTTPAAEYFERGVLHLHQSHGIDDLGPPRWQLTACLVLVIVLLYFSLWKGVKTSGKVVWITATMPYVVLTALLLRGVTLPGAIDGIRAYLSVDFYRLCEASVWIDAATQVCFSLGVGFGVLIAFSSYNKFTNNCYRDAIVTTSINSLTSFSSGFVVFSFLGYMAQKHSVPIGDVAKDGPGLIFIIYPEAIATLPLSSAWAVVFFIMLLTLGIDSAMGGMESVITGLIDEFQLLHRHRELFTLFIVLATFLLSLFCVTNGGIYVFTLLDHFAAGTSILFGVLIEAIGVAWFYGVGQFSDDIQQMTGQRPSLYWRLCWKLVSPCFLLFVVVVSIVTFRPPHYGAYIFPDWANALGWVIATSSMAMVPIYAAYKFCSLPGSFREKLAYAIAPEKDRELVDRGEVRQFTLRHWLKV
SMILES,Ki [1],Ki [2],Ki [3],Ki [4],Ki [5]
COc1ccccc1S[C@@H](c1ccccc1)[C@@H]1CNCCO1 (stereo in doubt; form 1) [listing 1 of 2 here],> 200 nM,,,,
c1ccc(S[C@@H](c2ccccc2)[C@@H]2CNCCO2)cc1,,36 nM,17.6 nM,522 nM,
Cc1ccccc1S[C@@H](c1ccccc1)[C@@H]1CNCCO1,,0.2 nM,8.3 nM,227 nM,
CCOc1ccccc1O[C@@H](c1ccccc1)[C@@H]1CNCCO1,> 200 nM,,,,> 100 nM
COc1ccccc1S[C@@H](c1ccccc1)[C@@H]1CNCCO1 (stereo in doubt; 14) [listing 1 of 2 here],,1.2 nM,10.7 nM,,
COc1ccccc1S[C@@H](c1ccccc1)[C@@H]1CNCCO1 (stereo in doubt; form 2) [listing 2 of 2 here],> 200 nM,,,,

# The next lines start with the values.
Ki [1],Ki [2],Ki [3],Ki [4],Ki [5],SMILES
> 200 nM,3.2 nM,109 nM,,,Cc1cccc(S[C@@H](c2ccccc2)[C@@H]2CNCCO2)c1
,1.5 nM,24.6 nM,,,COc1ccccc1S[C@@H](c1ccccc1)[C@@H]1CNCCO1 (stereo in doubt; form 2) [listing 1 of 2 here]
,66.2 nM,1.7 nM,,,COc1ccccc1S[C@@H](c1ccccc1)[C@@H]1CNCCO1 (stereo in doubt; form 1) [listing 2 of 2 here]
> 200 nM,,364 nM,,> 100 nM,Cc1ccc(S[C@@H](c2ccccc2)[C@@H]2CNCCO2)cc1
> 200 nM,,,,,COc1ccccc1S[C@@H](c1ccccc1)[C@@H]1CNCCO1 (stereo in doubt; 14) [listing 2 of 2 here]
